# Experimental data: US8486991B2, “Enantiomerically pure phosphoindoles as HIV inhibitors” (Idenix Pharmaceuticals, Inc., priority 2006, dated 2013)
# Where two headings read alike, the source gives them in different places.
# Legend:
# [1] = Cellular cytotoxicity, 4 days, six HIV-1 host cell lines (ranges); assay type: cell-based; conditions: human, read-out: Mean CC50 Range
# Procedure: (§7) Cell viability was measured by standard MTT or MTS staining.
# Following drug exposure for 4 days, cell viability was measured by MTS staining and CC50 values were determined. Drug concentrations ranged from 0.005 μM to 100 μM.
# [2] = system: HIV-1 BH10 K103N mutant virus; test: microbe, parasite or virus in culture; assay type: cell-based; conditions: Human immunodeficiency virus 1, MT4, read-out: Average EC50 Values ± Standard Deviation, K103N
# Procedure: (§1) The activity of the compounds was also assessed with the same virus and cell type using a different assay readout based on cytopathic effect (CPE).
# (§2) MT-4 cells (Source: NIH Catalog #120) were seeded onto 96-well cell culture plates (1×10^4 cells per well in 50 μL).
# (§3) The final DMSO concentration in the assay was 0.5% in 120 μL. Cell cultures were then incubated at 37° C./5% CO2 for 4 days. Then, Cell Titer 96 AQueous One Solution Cell Proliferation Assay (Promega) was used to measure cell viability. Briefly, the One Solution Reagent was added directly to culture wells (20 μL/well), incubated for 5 hours, and the absorbance was recorded at 492 nm using the Sunrise Tecan Spectrophotometer.
# (§4) The EC50 values were determined from the percent inhibition versus concentration data using a sigmoidal non-linear regression analysis based on four parameters with Tecan Magellan software.
# [3] = target: human DNA polymerase beta (Homo sapiens, UniProt P06746); test: Human cellular DNA polymerase beta assay; assay type: biochemical
# Excerpt: HIV RT, like other viral polymerase, shares limited structural homology with the cellular DNA polymerases responsible for normal nuclear and mitochondrial DNA synthesis and repair. This raises the formal possibility that inhibitors of HIV RT might inhibit cellular polymerases, resulting in cellular toxicity. In particular, inhibition of polymerase gamma has the potential to result in mitochondrial toxicity. The ability of Compound I and Compound III to inhibit cellular DNA polymerases was assessed using standard in vitro assays (Table 5).
# [4] = system: HIV-1 W.T. strains BH10, NL4-3 and IIIB; test: Drug susceptibility assays, 3 W.T. strains in 5 human cell lines (ranges); assay type: cell-based
# Excerpt: (§5) The virus and host-cell dependency of Compound I, Compound III and control drugs was further examined in drug susceptibility assays performed across 3 different subtype B wild-type HIV-1 strains and 5 different cell lines.
# HIV-1 IIIB in U937 cells = test: Drug susceptibility assay, IIIB in U937 cells; assay type: cell-based; conditions: Human immunodeficiency virus 1, IIIB, U-937; Table 17; read-out: Average EC50 Values ± Standard Deviation, host U937, virus IIIB
# Excerpt: as §5
# [5] = system: 9 different HIV-1 subtypes (A, B, C, D, F1, G, H, AE, AG), 18 viruses; test: PhenoSense testing, HIV-1 subtype panel; assay type: cell-based; conditions: Human immunodeficiency virus 1, read-out: potency range, panel of 9 different HIV-1 subtypes
# Excerpt: The activities of the test and control compounds were next tested against a subtype panel which covers all major HIV-1 subtypes or clades (A, B, C, D, F1, G, H, AE and AG). This panel was part of a 64 virus panel selected from the large library of clinical isolates Monogram BioSciences (formerly ViroLogics). Each of the subtypes in the panel was represented by 2 distinct viruses which share many sequence similarities, but also some key differences and therefore could respond differently to one or more of the drugs included in this study.
# [6] = system: HIV-1 BH10 wild-type virus; test: CPE / cell protection assay, MT-4 cells, BH10 wild-type; assay type: cell-based; conditions: Human immunodeficiency virus 1, MT4
# Procedure: as §1, §2, §3, §4
# [7] = Longer term cytotoxicity, 12 days, MTS, HuH7; conditions: human, HuH7 liver cells
# Procedure: as §7
# (§8) Cells were repeatedly treated with a range of drug concentrations (0.005 to 100 μM) for 9 (HeLa) or 12 days (HuH7, HepG2).
# [8] = target: site-directed mutant HIV-1 RT enzymes; test: HIV-1 RT enzyme assay, whole panel (ranges); assay type: biochemical; conditions: Table 3; range over W.T. and 7 mutant enzymes
# Excerpt: In Vitro Antiviral Activity Against Additional Mutant HIV RT Enzymes
# The studies are summarized in the text that follows.
# [9] = system: HIV-1 IIIB in MOLT-4 cells; test: Drug susceptibility assay, IIIB in MOLT-4 cells; assay type: cell-based; conditions: Human immunodeficiency virus 1, IIIB, MOLT-4; Table 17; read-out: Average EC50 Values ± Standard Deviation, host MOLT-4, virus IIIB
# Excerpt: as §5
# HIV-1 W.T. (NL4-3) virus = test: PBMC cell assay, W.T. (NL4-3); assay type: cell-based; conditions: Human immunodeficiency virus 1, NL43; Table 14; PBMC; read-out: Average EC50 Values ± Standard Deviation, W.T. (NL4-3)
# HIV-1 W.T. (BH10) virus = test: PBMC cell assay, W.T. (BH10); assay type: cell-based; conditions: Human immunodeficiency virus 1; Table 14; PBMC; read-out: Average EC50 Values ± Standard Deviation, W.T. (BH10)
# [10] = system: HIV-1 BH10 wild-type virus; test: microbe, parasite or virus in culture; assay type: cell-based
# [11] = system: HIV-1 IIIB K103R/V179D/P225H triple mutant virus; test: microbe, parasite or virus in culture; assay type: cell-based; conditions: Human immunodeficiency virus 1, IIIB
# Procedure: (§6) The test articles were next profiled against a panel of HIV-1 IIIB laboratory cultivated mutants as summarized in the text below. Antiviral efficacy was determined via a CPE assay with an MTS read-out for cell viability.
# HIV-1 IIIB w.t. virus = test: microbe, parasite or virus in culture; assay type: cell-based; conditions: Human immunodeficiency virus 1, IIIB, MT4, read-out: Average EC50 Values ± Standard Deviation, W.T.
# Procedure: as §6
# [12] = Longer term cytotoxicity, 9 days, MTS, HeLa; conditions: human, HeLa epithelial cells
# Procedure: as §7, §8
smiles,measurement,setting,value
"O=C1Nc2ccc(Cl)cc2C(C#CC2CC2)(C(F)(F)F)O1 (stereo not shown) [EFV, 6-chloro-4-cyclopropylethynyl-4-trifluoromethyl-1,4-dihydro-2H-3,1-benzoxazin-2-one, reference compound]",CC50 at 4 days,[1],23.2 to 51 µM
same,EC50,[2],41 ± 13 nM
same,"Average IC50 Values ± Standard Deviation, DNA Pol Beta",[3]; Table 5,did not reach an IC50
same,IC50,"[3]; Table 5, read-out: Average IC50 Values ± Standard Deviation, DNA Pol Beta",314 ± 177 µM
same,IC50,"[3]; Table 6, N=4, read-out: Mean IC50 Values ± Standard Deviation, DNA Pol Beta",314 ± 177 µM
same,EC50,"[4]; Human immunodeficiency virus 1, Table 17, over all virus/host combinations, read-out: Mean Activity Range",0.8 ± 2.3 nM
same,EC50,"[4]; Human immunodeficiency virus 1, read-out: EC50 range, 3 HIV-1 viral strains in 5 host human cell lines",0.4 to 3.2 nM
same,EC50,HIV-1 IIIB in U937 cells,1.5 ± 0.8 nM
same,EC50,[5],0.4 to 3.1 nM
same,EC50,"[6]; Table 8, CPE readout, read-out: Average EC50 Values ± Standard Deviation, W.T.",0.6 ± 0.1 nM
same,EC50,"[6]; range over the three agents, read-out: mean EC50 values, WT BH10 virus, CPE assay",0.1 to 0.7 nM
same,CC50 at 12 days,[7],75.7 ± 12.4 µM
same,IC50,[8],≥ 20 nM
same,EC50,[9],0.9 ± 0.2 nM
same,EC50,HIV-1 W.T. (NL4-3) virus,2.1 ± 0.7 nM
same,EC50,HIV-1 W.T. (BH10) virus,0.9 ± 0.3 nM
same,EC50,"[10]; Human immunodeficiency virus 1, MT4, 96 h, read-out: mean EC50, wild-type BH10 virus in MT-4 cells, p24 ELISA, 4 day",~1 nM
same,EC50,"[10]; Human immunodeficiency virus 1, MT4, read-out: Average EC50 Values ± Standard Deviation, host MT-4, virus BH10, Table 17",1.2 ± 0.8 nM
same,EC50,"[11]; MT4, read-out: Average EC50 Values ± Standard Deviation, K103R/V179D/P225H",> 1000 nM
same,EC50,"[11]; MT4, read-out: EC50, K103R/V179D/P225H triple mutant virus",> 1000 nM
same,EC50,HIV-1 IIIB w.t. virus,1.5 ± 0.6 nM
same,CC50 at 9 days,[12],48.6 ± 2.5 µM
